6 compounds from US5021411A, “Imidazodiazepine derivatives” (Hoffmann-La Roche Inc., priority 1988, dated 1991) can be followed below.

The experiment has as its target central benzodiazepine receptors (specific benzodiazepine receptors in the cerebral cortex). The experiment in a line: Inhibition of the specific binding of tritiated diazepam at the specific benzodiazepine receptors in the cerebral cortex (affinity to central benzodiazepine receptors). Particulars: read-out: Affinity to benzodiazepine receptors IC 50. From the text: The affinity of compounds of formula I to the central benzodiazepine receptors has been determined according to the method described in Life Science 20, 2101-2110 (1977) and Science 198, 849-851 (1977). According to this method, the inhibition of the binding of tritiated diazepam at the specific benzodiazepine receptors in the cerebral cortex by the respective test substances is ascertained. The IC50 ("50% inhibiting concentration") is that concentration of the respective test substance which brings about a 50 percent inhibition of the specific binding of the tritiated diazepam at the specific benzodiazepine receptors in the cerebral cortex.

Each structure is given as a SMILES string.

On to `C=CC(C)(O)C#Cc1ncn2c1CN(C)C(=O)c1c(Cl)cccc1-2` (stereo not drawn) [E, 7-chloro-4,5-dihydro-3-(3-hydroxy-3-methyl-4-penten-1-ynyl)-5-methyl-6H-imidazo[1,5-a][1,4]benzodiazepin-6-one], for which the IC50 was determined as 3.7 nM. Regarding `CC(=O)OCC#Cc1ncn2c1CN(C)C(=O)c1c(Cl)cccc1-2` [B, 3-(7-chloro-5,6-dihydro-5-methyl-6-oxo-4H-imidazo[1,5-a][1,4]benzodiazepin-3-yl)-2-propynyl acetate], the IC50 was 2.6 nM. As for `C/C(C#Cc1ncn2c1CN(C)C(=O)c1c(Cl)cccc1-2)=C/CO` [D, 7-chloro-4,5-dihydro-3-[(Z)-5-hydroxy-3-methyl-3-penten-1-ynyl]-5-methyl-6H-imidazo[1,5-a][1,4]-benzodiazepin-6-one], the IC50 is 1.4 nM.

In the case of `C/C(C#Cc1ncn2c1CN(C)C(=O)c1c(Cl)cccc1-2)=C\CO` [F, 7-chloro-4,5-dihydro-3-[(E)-5-hydroxy-3-methyl-3-penten-1-ynyl]-5-methyl-6H-imidazo[1,5-a][1,4]-benzodiazepin-6-one], the IC50 worked out at 2.2 nM. The figure for `CN1Cc2c(C#CC(C)(C)OCC3CC3)ncn2-c2cccc(Cl)c2C1=O` [C, 7-chloro-3-[3-(cyclopropylmethoxy)-3-methyl-1-butynyl]-4,5-dihydro-5-methyl-6H-imidazo[1,5-a][1,4]benzodiazepin-6-one] is 5 nM; for `CN1Cc2c(C#CCOCC3CC3)ncn2-c2cccc(Cl)c2C1=O` [A, 7-Chloro-3-[3-(cyclopropylmethoxy)-1-propynyl]-4,5-dihydro-5-methyl-6H-imidazo[1,5-a][1,4]benzodiazepin-6-one] it is 1.4 nM.
